Results: patent publication US20060276393A1, “Novel compositions for preventing and treating neurodegenerative and blood coagulation disorders” (Sirtris Pharmaceuticals, Inc., priority 2005, published 2006)

How the values were obtained:
rDNA locus (RDN1) = assay: Ribosomal DNA recombination and silencing assays; assay type: cell-based, S. cerevisiae
Experimental: Pre-treated cells (RDN1::URA3) were harvested and spotted as 10-fold serial dilutions on either SC or SC with 5-fluororotic acid (5-FOA).
Ribosomal DNA silencing assays using the URA3 reporters were performed as previously described^26. Ribosomal DNA recombination frequencies were determined by plating W303AR cells^37 on YPD medium with low adenine/histidine and counting the fraction of half-red sectored colonies using Bio-Rad Quantity One software as previously described^35. At least 6000 cells were analyzed per experiment and all experiments were performed in triplicate.

Human recombinant SIRT2 = target: T1, Human recombinant SIRT2 (Homo sapiens, UniProt Q8IXJ6); assay: SIRT2 deacetylation assay; assay type: biochemical; conditions: increasing resveratrol; 25 μM Fluor de Lys-SIRT2, 25 μM NAD+, 20 min 37° C.
T1 sequence (Q8IXJ6 1-389): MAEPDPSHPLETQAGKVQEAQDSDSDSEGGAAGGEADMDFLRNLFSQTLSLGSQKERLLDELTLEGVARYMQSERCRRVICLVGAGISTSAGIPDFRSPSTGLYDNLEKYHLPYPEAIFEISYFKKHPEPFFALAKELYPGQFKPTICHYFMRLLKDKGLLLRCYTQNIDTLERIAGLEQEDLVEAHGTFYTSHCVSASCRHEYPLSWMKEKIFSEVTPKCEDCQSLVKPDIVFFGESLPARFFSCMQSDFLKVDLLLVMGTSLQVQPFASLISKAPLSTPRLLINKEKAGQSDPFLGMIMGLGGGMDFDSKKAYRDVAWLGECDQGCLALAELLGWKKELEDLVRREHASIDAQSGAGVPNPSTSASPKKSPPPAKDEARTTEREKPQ
Description: Yeast Sir2 and human SIRT1 are very homologous and differ from human SIRT2 by the addition of an N-terminal domain that is absent in SIRT2. […] Thus, based on the difference in structure of SIRT1 and SIRT2, i.e., the absence of an N-terminal domain (see FIG. 8), it is believed that the N-terminal domain of SIRT1 and Sir2 is necessary for activation by the compounds described herein. In particular, it is likely that the activator compounds described herein interact with the N-terminal portion of sirtuins. The N-terminal portion of SIRT1 that is necessary for the action of the compounds is from about amino acid 1 to about amino acid 176, and that of Sir2 is from about amino acid 1 to about amino acid 175.

C. elegans = C. elegans lifespan; assay type: in vivo
Experimental: Thus, the presence of resveratrol in the growth media of C. elegans extends their lifespan.
Bristol N2 (Caenorhabditis Genetics Center) was used as the wild-type strain. The sir-2.1 mutant strain was generated by backcrossing VC199 (sir-2.1(ok434)) to N2 four times. Cultures were grown on standard NGM media and maintained on E. coli strain OP50. For the lifespan assays, synchronized animals were transferred to treatment plates as young adults (2 d after hatching, day 0 of assay), and were transferred to fresh treatment plates every 2 days for the first 6 to 8 days of the assay. […] For some lifespan trials, heat-killed OP50 were used as a food source. OP50 cultures were heated to 65° C. for 30 minutes, then pelleted and resuspended in 1/10 volume in S Basal supplemented with 10 mM MgSO4. In all assays, worms were monitored daily for mortality by gently probing with a platinum pick. Assays were performed at 24° C. To assay worm feeding rates, worms at the indicated stages were placed on treatment plates (no FUdR) for 4-5 hours, then videoed for 1 minute using a Pixelink PL-662 camera. The frame rate was slowed and the pumping rate of the pharynx was counted. To assay fecundity, gravid hermaphrodites (5 per plate, raised from synchronized L1s on normal or treatment plates) were allowed to lay eggs on their respective media for 5 hours, and the total number of eggs was counted.

recombinant dSir2 = target: T2, recombinant dSir2 (Drosophila melanogaster, UniProt Q9VK34); assay: dSir2 deacetylation assay; assay type: biochemical, D. melanogaster; conditions: dose-dependent; Fluor de Lys
T2 sequence (Q9VK34 1-823): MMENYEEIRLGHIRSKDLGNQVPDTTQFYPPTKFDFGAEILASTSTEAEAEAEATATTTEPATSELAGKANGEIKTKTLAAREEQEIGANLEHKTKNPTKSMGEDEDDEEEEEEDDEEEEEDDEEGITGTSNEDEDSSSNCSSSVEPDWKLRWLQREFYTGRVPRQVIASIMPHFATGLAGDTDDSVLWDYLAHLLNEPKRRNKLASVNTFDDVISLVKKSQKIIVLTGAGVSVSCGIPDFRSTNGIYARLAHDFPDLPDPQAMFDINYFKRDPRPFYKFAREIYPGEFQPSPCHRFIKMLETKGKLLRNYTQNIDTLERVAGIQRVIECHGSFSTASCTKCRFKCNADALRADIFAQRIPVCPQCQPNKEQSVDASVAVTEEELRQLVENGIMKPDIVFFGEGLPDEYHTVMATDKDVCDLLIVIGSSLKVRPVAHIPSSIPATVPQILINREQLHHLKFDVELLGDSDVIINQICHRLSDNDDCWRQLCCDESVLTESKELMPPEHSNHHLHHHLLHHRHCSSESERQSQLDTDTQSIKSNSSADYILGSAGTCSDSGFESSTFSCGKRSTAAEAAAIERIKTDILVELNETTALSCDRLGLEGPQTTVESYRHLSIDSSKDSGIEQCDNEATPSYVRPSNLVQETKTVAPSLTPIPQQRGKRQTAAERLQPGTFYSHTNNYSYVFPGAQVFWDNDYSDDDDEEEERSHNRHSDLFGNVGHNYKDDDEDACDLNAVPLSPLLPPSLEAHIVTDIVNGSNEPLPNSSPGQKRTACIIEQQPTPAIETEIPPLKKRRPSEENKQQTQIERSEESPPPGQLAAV
Experimental: (§1) STACs were dissolved at 10 mM in dimethylsulfoxide (DMSO) the day of the assay. […] Drosophila S2 cells were grown in Schneider media with fetal calf serum at 23-28° C., seeded at 9×10^4 cells/well, grown overnight and then exposed to 1 μM TSA, 500 μM polyphenols, and 200 μM FdL for 2 hr. Deacetylation of FdL with lysate from whole cells was determined as described^4. Unless otherwise indicated all initial rate measurements were means of three or more replicates obtained with single incubation times, at which point 5% or less of the substrate initially present was deacetylated.

recombinant SIR-2.1 = target: T3, recombinant SIR-2.1 (Caenorhabditis elegans, UniProt Q21921)
T3 sequence (Q21921 1-607): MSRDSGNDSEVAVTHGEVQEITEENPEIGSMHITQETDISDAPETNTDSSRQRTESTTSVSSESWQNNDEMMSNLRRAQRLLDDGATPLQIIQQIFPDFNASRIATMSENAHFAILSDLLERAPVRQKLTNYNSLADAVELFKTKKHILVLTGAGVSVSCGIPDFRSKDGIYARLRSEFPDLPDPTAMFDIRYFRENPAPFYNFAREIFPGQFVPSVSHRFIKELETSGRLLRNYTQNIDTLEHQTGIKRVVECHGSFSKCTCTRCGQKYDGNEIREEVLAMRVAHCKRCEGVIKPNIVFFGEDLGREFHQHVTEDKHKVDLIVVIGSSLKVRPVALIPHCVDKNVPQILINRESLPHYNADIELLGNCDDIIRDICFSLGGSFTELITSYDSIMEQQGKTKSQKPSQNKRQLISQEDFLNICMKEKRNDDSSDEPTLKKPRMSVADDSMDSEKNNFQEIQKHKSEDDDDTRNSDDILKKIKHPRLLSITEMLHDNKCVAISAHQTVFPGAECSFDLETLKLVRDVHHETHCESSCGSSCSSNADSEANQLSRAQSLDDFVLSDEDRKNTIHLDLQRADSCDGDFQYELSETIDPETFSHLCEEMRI
Experimental: as §1

## Oc1ccc(/C=C/c2cc(O)cc(O)c2)cc1 [Resveratrol, 3,5,4′-Trihydroxy-trans-stilbene]
rDNA locus (RDN1); SIR2-dependent
  reduction of the frequency of rDNA recombination: ~60%
rDNA locus (RDN1); URA3 reporter, 5-FOA
  effect on rDNA silencing: only minor effects on rDNA silencing
rDNA locus (RDN1); with Sir2 inhibitor nicotinamide
  rDNA recombination in the presence of nicotinamide: decreased
Human recombinant SIRT2
  SIRT2 activity: decrease SIRT2 activity
C. elegans; 50 worms strain N2, 100 μM, control 5 alive
  worms alive on day 17: 17 worms
C. elegans; sir-2.1 mutants, 100 μM, heat-killed OP50, not statistically significant
  lifespan extension: 5.2%
C. elegans; sir-2.1 mutants, 100 μM, live OP50, P=0.81
  lifespan extension: 3.3%
C. elegans; wild-type N2, 100 μM, live OP50
  lifespan extension: 12.6%
C. elegans; wild-type worms, 100 μM, heat-killed or live E. coli
  lifespan extended (maximum): up to 15%
Recombinant dSir2
  stimulated deacetylation (maximum): ≤ 2.4 fold
Recombinant SIR-2.1; 100 μM resveratrol, 10 μM Fluor de Lys
  Km of SIR-2.1 for the co-substrate NAD+: lowered the Km of SIR-2.1
Recombinant SIR-2.1; dose-dependent, Fluor de Lys
  stimulated deacetylation (maximum): up to 2.5 fold
